Measurements as given in paper PMC3480348, “Structure and Activity Analysis of Inauhzin Analogs as Novel Antitumor Compounds That Induce p53 and Inhibit Cell Growth” (PLoS ONE, 2012).
Where “and” joins values, the source holds several entries; their conditions need not be identical. Identical values can stand only once. Entries after “also recorded” stand apart in the source; their conditions may differ.

How the values were obtained:
[1] = tested on: p53 level in HCT116^+/+ cells; experiment: p53 induction by immunoblotting (IB) in HCT116^+/+ cells; format: cell-based, human
Procedure: (§1) EC90 values were calculated from the EC50 and Hill slope by a web-based calculator: http://www.graphpad.com/quickcalcs/Ecanything1.cfm.

p53 level in H460 cells = experiment: p53 induction by immunoblotting (IB) in H460 cells; format: cell-based, human
[2] = tested on: p53 level in H460 and HCT116^+/+ cells; experiment: p53 induction by immunoblotting (IB), statement does not separate the cell lines; format: cell-based, human; details: 18 hrs, 0.5, 2, 10 µM
From the text: (A–B) Initial Inauhzin analogs were purchased and tested the activity on H460 and HCT116^+/+ by immunoblotting (IB). […]

H460 cells [3] = experiment: 3-day WST-8 cell growth inhibition assay, H460; format: cell-based, human; details: for EC50: Homo sapiens, NCI-H460, 72 h WST-8, average of triplicates, highest concentration 50 µM, read-out: EC50, cell growth inhibition, H460 p53 wild type
H460 cells [4] = experiment: 3-day WST-8 cell growth inhibition assay, H460; format: cell-based, human; details: Homo sapiens, NCI-H460, calculated from EC50 and Hill slope (GraphPad web calculator); read-out: EC90, cell growth inhibition, H460 p53 wild type
Procedure: as §1

HCT116^+/+ cells = experiment: 3-day WST-8 cell growth inhibition assay, HCT116^+/+; format: cell-based, human; details: for EC90 / EC50: Homo sapiens; for EC90: HCT-116, calculated from EC50 and Hill slope, read-out: EC90, cell growth inhibition, HCT116^+/+ p53 wild type; for EC50: HCT-116, 72 h WST-8, average of triplicates, highest concentration 50 µM, read-out: EC50, cell growth inhibition, HCT116^+/+ p53 wild type
Procedure: as §1

H1299 cells = experiment: 3-day WST-8 cell growth inhibition assay, H1299 (p53 null); format: cell-based, human
Procedure: as §1

HCT116^−/− cells [5] = experiment: 3-day WST-8 cell growth inhibition assay, HCT116^−/− (p53 null); format: cell-based; details: Homo sapiens, HCT-116, calculated from EC50 and Hill slope
Procedure: as §1

WI-38 cells = experiment: WST-8 cytotoxicity assay on normal fibroblasts WI-38; format: cell-based, human
Procedure: as §1

HCT116^−/− cells [6] = experiment: 3-day WST-8 cell growth inhibition assay, HCT116^−/− (p53 null); format: cell-based, human
[7] = 2 µM, 18 hrs, IB normalized to GAPDH, compared to 2 µM INZ

EC50 (H460 cells [3]) [µM]	EC90 (H460 cells [4]) [µM]	EC90 (HCT116^+/+ cells) [µM]	EC50 (HCT116^+/+ cells) [µM]	EC90 (H1299 cells; Homo sapiens, NCI-H1299, calculated from EC50 and Hill slope) [µM]	EC50 (H1299 cells; Homo sapiens, NCI-H1299, 72 h WST-8, average of triplicates, highest concentration 100 µM) [µM]	EC50 on H1299 fold higher than on H460 cells (H1299 cells; p53-null H1299 vs p53-containing H460)	EC90 (HCT116^−/− cells [5]) [µM]	EC50 (HCT116^−/− cells [6]; Homo sapiens, HCT-116, 72 h WST-8, average of triplicates, highest concentration 100 µM) [µM]	SMILES	p53 induction in HCT116^+/+ cells [1, 7] [%]	p53 induction in H460 cells (p53 level in H460 cells; [7]) [%]	p53 induction / activation by synthetic analogs [2]	p53 induction / activation in HCT116^+/+ cells ([1]; IB, 18 hrs, 0.5, 2, 10 µM, p53 acetylation (lys382), p53 level, MDM2)	p53 induction / activation in H460 cells (p53 level in H460 cells; IB, 18 hrs, 0.5, 2, 10 µM)	fold higher potency than INZ in growth inhibition of H460 cells (H460 cells [3]; EC50 compared with INZ)	effect on p53-null H1299 cells compared with p53-containing cells (H1299 cells; in vitro cytotoxicity)	fold higher potency than INZ in growth inhibition of HCT116^+/+ cells (HCT116^+/+ cells; EC50 compared with INZ)	EC50 (WI-38 cells; Homo sapiens, WI-38, highest concentration tested 50 µM, n.d. = not be able to be determined, read-out: EC50, normal cells WI-38 p53 wild type) [µM]	toxicity to normal human WI-38 cells (WI-38 cells; normal human fibroblasts, p53-containing)	effect on p53-null HCT116^−/− cells compared with p53-containing cells (HCT116^−/− cells [6]; in vitro cytotoxicity)
									CCC(Sc1nnc2c(n1)[nH]c1ccccc12)C(=O)N1c2ccccc2Sc2ccc(OC)cc21 (stereo not shown) [Compound 7, 2-((5H-[1,2,4]triazino[5,6-b]indol-3-yl)thio)-1-(2-methoxy-10H-phenothiazin-10-yl)butan-1-one]	< 50	< 50	remained active in p53 induction								
2.9 ± 0.2	7.5	18.3	2.5 ± 0.6						CCC(Sc1nnc2c3ccccc3n(C(=O)CCCCC3CC4NC(=O)NC4S3)c2n1)C(=O)N1c2ccccc2Sc2ccccc21 (stereo not shown) [Compound 20, 5-(5-oxo-5-(3-((1-oxo-1-(10H-phenothiazin-10-yl)butan-2-yl)thio)-5H-[1,2,4]triazino[5,6-b]indol-5-yl)pentyl)tetrahydro-1H-thieno[2,3-d]imidazole-2(5H)-one]				as effective as INZ	as effective as INZ						
0.7	3.6	5	0.5	58.9	11.2	3–15 fold	91.7	12.8 ± 1.7	CCC(Sc1nnc2c3ccccc3n(CCO)c2n1)C(=O)N1c2ccccc2Cc2ccccc21 (stereo not shown) [Compound 37, 1-(acridin-10(9H)-yl)-2-((5-(2-hydroxyethyl)-5H-[1,2,4]triazino[5,6-b]indol-3-yl)thio)butan-1-one]			much better potency than INZ; also recorded: more potent in p53 activation than their parental compound INZ			10 fold and 5- to 10 fold	much less effect; also recorded: much less effective	5 fold and 5- to 10 fold	> 50	no toxicity	much less effect; also recorded: much less effective
